Data reported in PubChem BioAssay AID248 (DTP/NCI, 2004).
Where “and” joins values, the source holds several entries; their conditions need not be identical. Equal values may be shown once. Inconclusive results and toxic doses are left out. Cut-off read from the data, not from the text of the source: active = T/C of 150% or more; inactive = T/C below 125%.

System: L1210 leukemia ip in BDF1 mice, survival T/C
Test: NCI In Vivo Anticancer Drug Screen. Data for tumor model L1210 Leukemia (intraperitoneal) in B6D2F1 (BDF1) mice
Details: endpoint: mean survival time, higher = longer survival
Outline: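 In this screen, tumor-bearing mice given compound are compared to those given vehicle, and their survival values are reported as a treated-to-control quotient.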

[1] = dose: 100.0 mg/kg/injection, schedule: Q01DX001 (ip), vehicle: saline
[2] = dose: 200.0 mg/kg/injection, schedule: Q01DX001 (ip), vehicle: saline
[3] = dose: 400.0 mg/kg/injection, schedule: Q01DX001 (ip), vehicle: saline
[4] = dose: 100.0 mg/kg/injection, schedule: Q01DX009 (ip), vehicle: saline
[5] = dose: 200.0 mg/kg/injection, schedule: Q01DX009 (ip), vehicle: saline
[6] = dose: 100.0 mg/kg/injection, schedule: Q04DX003 (ip), vehicle: saline
[7] = dose: 200.0 mg/kg/injection, schedule: Q04DX003 (ip), vehicle: saline
[8] = dose: 400.0 mg/kg/injection, schedule: Q01DX009 (ip), vehicle: saline
[9] = dose: 400.0 mg/kg/injection, schedule: Q04DX003 (ip), vehicle: saline
[10] = dose: 100.0 mg/kg/injection, schedule: Q04DX003 (ip), vehicle: Klucel (hydroxypropylcellulose) (HPC)
[11] = dose: 200.0 mg/kg/injection, schedule: Q04DX003 (ip), vehicle: Klucel (hydroxypropylcellulose) (HPC)
[12] = dose: 400.0 mg/kg/injection, schedule: Q04DX003 (ip), vehicle: Klucel (hydroxypropylcellulose) (HPC)
[13] = dose: 100.0 mg/kg/injection, schedule: Q04DX002 (ip), vehicle: other
[14] = dose: 200.0 mg/kg/injection, schedule: Q04DX002 (ip), vehicle: other
[15] = dose: 100.0 mg/kg/injection, schedule: Q01DX001 (ip), vehicle: saline with Tween-80
[16] = dose: 200.0 mg/kg/injection, schedule: Q01DX001 (ip), vehicle: saline with Tween-80
[17] = dose: 400.0 mg/kg/injection, schedule: Q01DX001 (ip), vehicle: saline with Tween-80
[18] = dose: 100.0 mg/kg/injection, schedule: Q04DX003 (ip), vehicle: saline with Tween-80
[19] = dose: 200.0 mg/kg/injection, schedule: Q04DX003 (ip), vehicle: saline with Tween-80
[20] = dose: 100.0 mg/kg/injection, schedule: Q04DX002 (ip), vehicle: saline
[21] = dose: 200.0 mg/kg/injection, schedule: Q04DX002 (ip), vehicle: saline
[22] = dose: 400.0 mg/kg/injection, schedule: Q04DX002 (ip), vehicle: saline
[23] = dose: 100.0 mg/kg/injection, schedule: Q01DX001 (ip), vehicle: carboxymethylcellulose (CMC)
[24] = dose: 200.0 mg/kg/injection, schedule: Q01DX001 (ip), vehicle: carboxymethylcellulose (CMC)
[25] = dose: 400.0 mg/kg/injection, schedule: Q01DX001 (ip), vehicle: carboxymethylcellulose (CMC)
[26] = dose: 100.0 mg/kg/injection, schedule: Q01DX009 (ip), vehicle: Klucel (hydroxypropylcellulose) (HPC)
[27] = dose: 200.0 mg/kg/injection, schedule: Q01DX009 (ip), vehicle: Klucel (hydroxypropylcellulose) (HPC)
[28] = dose: 400.0 mg/kg/injection, schedule: Q01DX009 (ip), vehicle: Klucel (hydroxypropylcellulose) (HPC)
[29] = dose: 150.0 mg/kg/injection, schedule: Q01DX001 (ip), vehicle: other
[30] = dose: 300.0 mg/kg/injection, schedule: Q01DX001 (ip), vehicle: other
[31] = dose: 100.0 mg/kg/injection, schedule: Q01DX001 (ip), vehicle: Klucel (hydroxypropylcellulose) (HPC)
[32] = dose: 200.0 mg/kg/injection, schedule: Q01DX001 (ip), vehicle: Klucel (hydroxypropylcellulose) (HPC)

Measured: T/C

Nc1ccc(NC(=O)c2ccc(C(=O)Nc3ccc(N)cc3)cc2)cc1
inactive: dose: 30.0 mg/kg/injection, schedule: Q01DX Z (ip), vehicle: methylcellulose (MC) 103 % of control | dose: 60.0 mg/kg/injection, schedule: Q01DX Z (ip), vehicle: methylcellulose (MC) 103 % of control | dose: 120.0 mg/kg/injection, schedule: Q01DX Z (ip), vehicle: methylcellulose (MC) 95 % of control | dose: 125.0 mg/kg/injection, schedule: Q01DX Z (ip), vehicle: water 96 % of control | dose: 250.0 mg/kg/injection, schedule: Q01DX Z (ip), vehicle: water 93 % of control | dose: 500.0 mg/kg/injection, schedule: Q01DX Z (ip), vehicle: water 98 % of control

Nc1ccc2nc3c4ccccc4c(O)n3nc2c1
inactive: dose: 100.0 mg/kg/injection, schedule: Q04DX002 (ip), vehicle: saline with Tween-80 106 % of control | dose: 200.0 mg/kg/injection, schedule: Q04DX002 (ip), vehicle: saline with Tween-80 102 % of control | dose: 400.0 mg/kg/injection, schedule: Q04DX002 (ip), vehicle: saline with Tween-80 102 % of control

Cc1nc(N)[nH]c(=O)c1CCCS
inactive: [1] 104 % of control | [2] 101 % of control | [3] 102 % of control

C=C(Br)C(C)(C)C
inactive: dose: 50.0 mg/kg/injection, schedule: Q01DX009 (ip), vehicle: saline 101 % of control | [4] 101 % of control | [5] 101 % of control

COc1ccccc1C(=O)N/N=C\c1ccc(Cl)cc1Cl
inactive: [4] 111 % of control | [6] 122 % of control | [5] 97 % of control | [7] 103 % of control | [8] 94 % of control | [9] 100 % of control

CCCCCCN(S(=O)(=O)c1ccc([N+](=O)[O-])cc1)S(=O)(=O)c1ccc([N+](=O)[O-])cc1
inactive: [10] 96 % of control | [11] 88 % of control | [12] 88 % of control

[Br][La]([Br])[Br]
inactive: [6] 89 % of control | [7] 91 % of control | [9] 91 % of control

Cc1cccc(C)c1SSc1c(C)cccc1C
inactive: dose: 50.0 mg/kg/injection, schedule: Q04DX002 (ip), vehicle: other 96 % of control | [13] 108 % of control | [14] 101 % of control

O=S(=O)(O)OCc1cc(O)c(OS(=O)(=O)O)c(Br)c1Br
inactive: [15] 97 % of control | [16] 102 % of control | [17] 94 % of control

O=C1CCCCCN1
inactive: [1] 101 % of control | [4] 100 % of control | [13] 98 % of control | [2] 101 % of control | [5] 100 % of control | [14] 95 % of control | [3] 103 % of control | dose: 400.0 mg/kg/injection, schedule: Q04DX002 (ip), vehicle: other 101 % of control

O=C(CCl)N1CC2CCC(CC2)C1
inactive: [10] 97 % of control

CC(=O)NS(=O)(=O)c1ccc(NC(=O)c2ccccc2C(=O)O)cc1
inactive: dose: 50.0 mg/kg/injection, schedule: Q01DX009 (ip), vehicle: saline with Tween-80 102 % of control | dose: 100.0 mg/kg/injection, schedule: Q01DX009 (ip), vehicle: saline with Tween-80 100 % of control | [18] 95 % of control | dose: 200.0 mg/kg/injection, schedule: Q01DX009 (ip), vehicle: saline with Tween-80 96 % of control | [19] 93 % of control

O=C(O)CNC1CCCCC1
inactive: [4] 96 % of control | [20] 97 % of control | [5] 89 % of control | [21] 102 % of control | [8] 96 % of control | [22] 97 % of control

Cc1ccc(NC(=O)Nc2ccc(Cl)cc2)c(C)c1
inactive: [23] 101 % of control | [24] 106 % of control | [25] 98 % of control

Nc1nc(N)nc(Cc2nc(N)nc(N)n2)n1
inactive: dose: 50.0 mg/kg/injection, schedule: Q01DX001 (ip), vehicle: carboxymethylcellulose (CMC) 90 % of control | [23] 87 % of control | [24] 92 % of control | [25] 95 % of control

Cc1cccc(NC(=O)Nc2ccccc2)c1C
inactive: [26] 104 % of control | [10] 101 % of control | [27] 96 % of control | [11] 95 % of control | [28] 104 % of control | [12] 98 % of control

N=C(N)c1ncn(C2CC(O)C(CO)O2)c1N (stereo not drawn)
inactive: [1] 106 % of control | [2] 103 % of control

CC1(C)N=C(N)N=C(N)N1c1cccc(CO)c1
inactive: [1] 96 % of control | [2] 105 % of control

CC(=O)O/N=C1\C(C)=[N+]([O-])[N+]([O-])=C1c1ccccc1
inactive: dose: 50.0 mg/kg/injection, schedule: Q01DX009 (ip), vehicle: Klucel (hydroxypropylcellulose) (HPC) 98 % of control | [26] 87 % of control | [27] 90 % of control

CCCCCCC(C)NCC(C)(C)OC(=O)c1ccc(N)cc1 (stereo not drawn)
inactive: dose: 75.0 mg/kg/injection, schedule: Q01DX001 (ip), vehicle: other 93 % of control | [29] 101 % of control | [30] 93 % of control

Fc1c(F)c(F)c(Oc2c(F)c(F)c(Br)c(F)c2F)c(F)c1F
inactive: [15] 88 % of control | [16] 88 % of control | [17] 88 % of control

Cc1ccc(C(=O)C(=O)c2ccccc2)c(C)c1
inactive: [1] 107 % of control | [2] 102 % of control | [3] 96 % of control

COc1ccc(CC2Cc3cc(OC)c(OC)cc3C=N2)cc1OC (stereo not drawn)
inactive: [4] 100 % of control | [6] 98 % of control | [5] 100 % of control | [7] 93 % of control | [9] 91 % of control

CCN(CC)C(=O)COC(=O)c1cccc2[nH]ccc12
inactive: [18] 102 % of control | [19] 100 % of control | dose: 400.0 mg/kg/injection, schedule: Q04DX003 (ip), vehicle: saline with Tween-80 102 % of control

CC(=O)Nc1nc(-c2ccc([N+](=O)[O-])cc2)c(CCC=O)c(=O)[nH]1
inactive: [26] 88 % of control | [10] 90 % of control | [27] 94 % of control | [11] 98 % of control | [28] 102 % of control | [12] 98 % of control

c1ccc2cc(N=Nc3ccc4ccccc4c3)ccc2c1
inactive: [26] 98 % of control | [10] 95 % of control | [27] 97 % of control | [11] 92 % of control | [28] 102 % of control | [12] 94 % of control

CC(=O)OCC1OC(SSCc2ccccc2)C(OC(C)=O)C(OC(C)=O)C1OC(C)=O (stereo not drawn)
inactive: [1] 96 % of control | [2] 93 % of control | [3] 93 % of control

Cc1ccc(S(=O)(=O)N(C)c2cc(Cl)c(C#N)c(Cl)c2)cc1
inactive: [31] 96 % of control | [10] 102 % of control | [32] 96 % of control | [11] 93 % of control and 92 % of control | dose: 400.0 mg/kg/injection, schedule: Q01DX001 (ip), vehicle: Klucel (hydroxypropylcellulose) (HPC) 89 % of control | [12] 97 % of control and 91 % of control

O=C(NCCCl)OCCCl
inactive: [20] 94 % of control | [21] 97 % of control | [22] 94 % of control

O=C1OCCN1N1C(=O)CC2(CCCCC2)C1=O
inactive: dose: 50.0 mg/kg/injection, schedule: Q01DX001 (ip), vehicle: Klucel (hydroxypropylcellulose) (HPC) 100 % of control | [31] 107 % of control | [32] 97 % of control

CCCCCCCCCCCC(=O)NC(=S)Nc1ccc2ccccc2c1
inactive: [10] 86 % of control | [11] 86 % of control | [12] 86 % of control

O=[N+]([O-])c1ccc(Cl)cc1/C=N\N=C1c2ccccc2-c2ccccc21
inactive: [29] 94 % of control | [30] 100 % of control

CSc1ccc(C(=NO)c2ccc(SC)cc2)cc1
inactive: [26] 95 % of control | [10] 101 % of control | [27] 103 % of control | [11] 94 % of control | [28] 95 % of control | [12] 103 % of control
